According to US8293731B2, “HIV integrase inhibitors” (Merck Sharp + Dohme Corp., priority 2005, dated 2012):

tested on: HIV; test: Assay for inhibition of HIV replication (spread assay): acute HIV infection of T-lymphoid cells; format: cell-based; conditions: Human immunodeficiency virus 1, 'less than about'
Protocol: Assays for the inhibition of acute HIV infection of T-lymphoid cells were conducted in accordance with Vacca, J. P. et al., Proc. Natl. Acad. Set USA 1994, 91: 4096. […] For example, the compounds of Examples 1 to 64 were tested in this assay and found to have IC95 values of less than about 10 micromolar.

Which IC95 does the source give for `CC1(C)C(=O)N(CCO)c2c3c(c(O)c(=O)n21)C(=O)N(Cc1ccc(F)c(Cl)c1)CC3` [Example 54, 8-(3-Chloro-4-fluorobenzyl)-6-hydroxy-1-(2-hydroxyethyl)-3,3-dimethyl-1,8,9,10-tetrahydroimidazo[2,1-a]-2,6-naphthyridine-2,5,7(3H)-trione] here?
The IC95 was less than 10 µM.

With `CC1(C)C(=O)N(CCCO)c2c3c(c(O)c(=O)n21)C(=O)N(Cc1ccc(F)c(Cl)c1)CC3` [Example 55, 8-(3-Chloro-4-fluorobenzyl)-6-hydroxy-1-(3-hydroxypropyl)-3,3-dimethyl-1,8,9,10-tetrahydroimidazo[2,1-a]-2,6-naphthyridine-2,5,7(3H)-trione] as the compound, how does the IC95 read?
The IC95 was less than 10 µM.

For `CC1(C)C(=O)N(CCCCO)c2c3c(c(O)c(=O)n21)C(=O)N(Cc1ccc(F)c(Cl)c1)CC3` [Example 56, 8-(3-Chloro-4-fluorobenzyl)-6-hydroxy-1-(4-hydroxybutyl)-3,3-dimethyl-1,8,9,10-tetrahydroimidazo[2,1-a]-2,6-naphthyridine-2,5,7(3H)-trione], which IC95 is on record?
Its IC95 is less than 10 µM.

`CC(=O)OCCN1C(=O)C(C)(C)n2c1c1c(c(O)c2=O)C(=O)N(Cc2ccc(F)c(Cl)c2)CC1` [Example 57, 8(3-Chloro-4-fluorobenzyl)-6-hydroxy-1-(2-acetyloxyethyl)-3,3-dimethyl-1,8,9,10-tetrahydroimidazo[2,1-a]-2,6-naphthyridine-2,5,7(3H)-trione] was tested. Which IC95 did it give?
The IC95 was less than 10 µM.

Which IC95 does the source give for `CC(=O)OCCCN1C(=O)C(C)(C)n2c1c1c(c(O)c2=O)C(=O)N(Cc2ccc(F)c(Cl)c2)CC1` [Example 58, 8-(3-Chloro-4-fluorobenzyl)-6-hydroxy-1-(3-acetyloxypropyl)-3,3-dimethyl-1,8,9,10-tetrahydroimidazo[2,1-a]-2,6-naphthyridine-2,5,7(3H)-trione] here?
The IC95 was less than 10 µM.

For `CC(=O)OCCCCN1C(=O)C(C)(C)n2c1c1c(c(O)c2=O)C(=O)N(Cc2ccc(F)c(Cl)c2)CC1` [Example 59, 8-(3-Chloro-4-fluorobenzyl)-6-hydroxy-1-(4-acetyloxybutyl)-3,3-dimethyl-1,8,9,10-tetrahydroimidazo[2,1-a]-2,6-naphthyridine-2,5,7(3H)-trione], which IC95 is on record?
The IC95 was less than 10 µM.

Which IC95 does the source give for `CC1(CCO)C(=O)N(CCO)c2c3c(c(O)c(=O)n21)C(=O)N(Cc1ccc(F)c(Cl)c1)CC3` (centres unmarked) [Example 60, 8-(3-Chloro-4-fluorobenzyl)-6-hydroxy-1,3-bis(2-hydroxyethyl)-3-methyl-1,8,9,10-tetrahydroimidazo[2,1-a]-2,6-naphthyridine-2,5,7(3H)-trione] here?
The IC95 was less than 10 µM.

Which IC95 does the source give for `O=C1OCCCCn2c1c1c(c(O)c2=O)C(=O)N(Cc2ccc(F)c(Cl)c2)CC1` [Example 61, 11-(3-Chloro-4-fluorobenzyl)-9-hydroxy-3,4,5,6,12,13-hexahydro-[1,4]oxazocino[3,4-a]-2,6-naphthyridine-1,8,10(11H)-trione] here?
The IC95 was less than 10 µM.

`O=C1OCCCn2c1c1c(c(O)c2=O)C(=O)N(Cc2ccc(F)c(Cl)c2)CC1` [Example 62, 10-(3-Chloro-4-fluorobenzyl)-8-hydroxy-4,5,11,12-tetrahydro-3H-[1,4]oxazepino[3,4-a]-2,6-naphthyridine-1,7,9(10H)-trione] was tested. Which IC95 did it give?
The IC95 was less than 10 µM.

How did the IC95 turn out when `CC(=O)OCC1Cn2c(c3c(c(O)c2=O)C(=O)N(Cc2ccc(F)c(Cl)c2)CC3)C(=O)O1` (centres unmarked) [Example 63, 9-(3-Chloro-4-fluorobenzyl)-7-hydroxy-3-(acetyloxymethyl)-3,4,10,11-tetrahydro[1,4]oxazino[3,4-a]-2,6-naphthyridine-1,6,8(9H)-trione] was run?
Its IC95 is less than 10 µM.

`O=C1OC(CO)Cn2c1c1c(c(O)c2=O)C(=O)N(Cc2ccc(F)c(Cl)c2)CC1` (centres unmarked) [Example 64, 9-(3-Chloro-4-fluorobenzyl)-7-hydroxy-3-(hydroxymethyl)-3,4,10,11-tetrahydro[1,4]oxazino[3,4-a]-2,6-naphthyridine-1,6,8(9H)trione] was tested. Which IC95 did it give?
Its IC95 is less than 10 µM.
